Assay results taken from patent US5196094A, “Separation of 1,1,1-trichloroethane from the lower alcohols by extractive distillation” (priority 1991, dated 1993).

Key:
[1] = Vapor-liquid equilibrium still, separation of 1,1,1-trichloroethane from n-propanol; type: physicochemical
[2] = Vapor-liquid equilibrium still, separation of 1,1,1-trichloroethane from 2-butanol; type: physicochemical
[3] = Vapor-liquid equilibrium still, separation of 1,1,1-trichloroethane from ethanol; type: physicochemical; settings: 1,1,1-trichloroethane from ethanol
[4] = Vapor-liquid equilibrium still, separation of 1,1,1-trichloroethane from methanol; type: physicochemical
[5] = Vapor-liquid equilibrium still, separation of 1,1,1-trichloroethane from t-butanol; type: physicochemical
[6] = Run in glass perforated plate rectification column, methanol; type: physicochemical; settings: 1 h
Description: A solution comprising 250 grams of the 1,1,1-trichloroethane-methanol azeotrope was placed in the stillpot of a 7.3 theoretical plate glass perforated plate rectification column. […] The temperature of the extractive agent as it entered the top of the column was 65° C. After establishing the feed rate of the extractive agent, the heat input to the 1,1,1-trichloroethane-methanol in the stillpot was adjusted to give a total reflux rate of 40 ml/min. After 1.5 hours operation, overhead and bottoms samples were collected and analysed by gas chromatography. The overhead analysis was 90.2% 1,1,1-trichloroethane, 9.8% methanol and the bottoms analysis was 0.8% 1,1,1-trichloroethane, 99.2% methanol.

[7] = Vapor-liquid equilibrium still, separation of 1,1,1-trichloroethane from isopropanol; type: physicochemical
[8] = Run in glass perforated rectification column, t-butanol; type: physicochemical
Description: A solution comprising 250 grams of the 1,1,1-trichloroethane-t-butanol azeotrope was placed in the stillpot of the 7.3 theoretical plate rectification column. […] The temperature of the extractive agent as it entered the top of the column was 80° C. After establishing the feed rate of the extractive agent, the heat input to the 1,1,1-trichloroethane-t-butanol in the stillpot was adjusted to give a total reflux rate of 40 ml/min. After 1.5 hours operation, overhead and bottoms samples were collected and analysed. The overhead analysis was 95.7% 1,1,1-trichloroethane, 4.3% t-butanol and the bottoms analysis was 33.5% 1,1,1-trichloroethane, 66.5% t-butanol. This gives an average relative volatility of 1.68 for each theoretical plate.

[9] = Run in glass perforated plate rectification column, isopropanol; type: physicochemical
Description: (§1) A solution comprising 250 grams of the 1,1,1-trichloroethane-isopropanol azeotrope was placed in the stillpot of the 7.3 theoretical plate rectification column. […] The temperature of the extractive agent as it entered the top of the column was 73° C. After establishing the feed rate of the extractive agent, the heat input to the 1,1,1-trichloroethane-isopropanol in the stillpot was adjusted to give a total reflux rate of 40 ml/min. After 1.5 hours operation, overhead and bottoms samples were collected and analysed.

[10] = Run in glass perforated plate rectification column, ethanol; type: physicochemical; settings: 1 h
Description: as §1, with “1,1,1-trichloroethane ethanol” for “1,1,1-trichloroethane-isopropanol”, “70°” for “73°”

[11] = Run in glass perforated plate rectification column, 2-butanol; type: physicochemical
Description: A solution comprising 250 grams of the 1,1,1-trichloroethane-2-butanol azeotrope was placed in the stillpot of the 7.3 theoretical plate rectification column. […] The temperature of the extractive agent as it entered the column was 83° C. After establishing the feed rate of the extractive agent, the heat input to the 1,1,1-trichloroethane-2-butanol in the stillpot as adjusted to give a total reflux rate of 40 ml/min. After 1.5 hours operation, overhead and bottoms samples were collcted and analysed. The overhead analysis was 99.7% 1,1,1-trichloroetahne, 0.3% 2-butanol and the bottoms analysis was 55.1% 1,1,1-trichloroethane, 44.9% 2-butanol. This gives an average relative volatility of 2.15 for each theoretical plate.

[12] = Run in glass perforated plate rectification column, n-propanol; type: physicochemical
Description: A solution comprising 250 grams of the 1,1,1-trichloroethane-n-propanol azeotrope was placed in the stillpot of the 7.3 theoretical plate rectification column. […] The temperature of the extractive agent as it entered the top of the column was 75° C. After establishing the feed rate of the extractive agent, the heat input to the 1,1,1-trichloroethane […] in the stillpot was adjusted to give a total reflux rate of 40 ml/min. After 1.5 hours operation, overhead and bottoms samples were collected and analysed. […] This gives an average relative volatility of 2.33 for each theoretical plate.

[13] = minimum boiling azeotrope with 1,1,1-trichloroethane; cited from earlier work
[14] = 1,1,1-trichloroethane from methanol, vapor-liquid equilibrium still
[15] = 1,1,1-trichloroethane from t-butanol
[16] = 1,1,1-trichloroethane from n-propanol, vapor-liquid equilibrium still
[17] = […], average for each theoretical plate
[18] = 70 g azeotrope, 30 g agent, refluxed eight hours
[19] = 1,1,1-trichloroethane from 2-butanol, vapor-liquid equilibrium still

Question: Which “Relative Volatility” value [1] does the source give for `COCCOCCO` [Diethylene glycol methyl ether] here?
Answer: Its value is 2.7.

Question: What about the “Relative Volatility” value [2] of the same molecule?
Answer: The value was 3.0.

Question: What about the “Relative Volatility” value [3] of the same molecule?
Answer: The value was 3.3.

Question: What about the “Relative Volatility” value [4, 14] of the same molecule?
Answer: The value was 3.3.

Question: And the “Relative Volatility” value [5, 15]?
Answer: Its value is 2.2.

Question: Which results are given for `C[S+](C)[O-]` [Dimethylsulfoxide]?
Answer: Relative Volatility [6]: 2.13; Weight % CH3 CCl3 ([6]; bottoms): 3.5%; Weight % Methanol ([6]; bottoms): 96.5%; Weight % CH3 CCl3 ([6]; overhead): 90.2%; Weight % Methanol ([6]; overhead): 9.8%; Relative Volatility [1, 16]: 2.3; Relative Volatility [2]: 2.2; Relative Volatility [7]: 2.5; Relative Volatility ([8]; 1 h): 1.68; Relative Volatility [8, 17]: 1.68; Weight % CH3 CCl3 ([8]; bottoms, 1 h): 43.4%; Weight % t-Butanol ([8]; bottoms, 1 h): 56.6%; Weight % CH3 CCl3 ([8]; overhead, 1 h): 97.1%; Weight % t-Butanol ([8]; overhead, 1 h): 2.9%; liquid composition, 1,1,1-trichloroethane [4, 18]: 11%; liquid composition, methanol [4, 18]: 89%; vapor composition, 1,1,1-trichloroethane [4, 18]: 24.2%; vapor composition, methanol [4, 18]: 75.8%; Relative Volatility ([9]; 1 h): 2.5; Relative Volatility [9, 17]: 2.2; Weight % CH3 CCl3 ([9]; bottoms, 1 h): 27.8%; Weight % Isopropanol ([9]; bottoms, 1 h): 72.2%; Weight % CH3 CCl3 ([9]; overhead, 1 h): 99.6%; Weight % Isopropanol ([9]; overhead, 1 h): 0.4%; Relative Volatility [10]: 2.1; Weight % CH3 CCl3 ([10]; bottoms): 13.6%; Weight % Ethanol ([10]; bottoms): 86.4%; Weight % CH3 CCl3 ([10]; overhead): 97.3%; Weight % Ethanol ([10]; overhead): 2.7%; Relative Volatility ([11]; 1 h): 2.1; Relative Volatility [11, 17]: 2.15; Weight % 2-Butanol ([11]; bottoms, 1 h): 46.9%; Weight % CH3 Cl3 ([11]; bottoms, 1 h): 53.1%; Weight % 2-Butanol ([11]; overhead, 1 h): 0.4%; Weight % CH3 Cl3 ([11]; overhead, 1 h): 99.6%; Relative Volatility ([12]; 1 h): 2.17; Relative Volatility [12, 17]: 2.33; Weight % CH3 CCl3 ([12]; bottoms, 1 h): 40%; Weight % n-Propanol ([12]; bottoms, 1 h): 60%; Weight % CH3 CCl3 ([12]; overhead, 1 h): 99.5%; Weight % n-Propanol ([12]; overhead, 1 h): 0.5%; Relative Volatility [5, 15]: 1.7

Question: With `CCCCO` [1-Butanol] as the molecule, how does the “Relative Volatility” value [1, 16] read?
Answer: The value was 3.9.

Question: And the “Relative Volatility” value [3]?
Answer: The value was 3.5.

Question: And the “Relative Volatility” value [5, 15]?
Answer: The value was 2.7.

Question: With `CCOCCO` [Ethylene glycol ethyl ether] as the molecule, how does the “Relative Volatility” value [1] read?
Answer: The value was 3.6.

Question: What about the “Relative Volatility” value [2] of the same molecule?
Answer: Its value is 3.1.

Question: And the “Relative Volatility” value [3]?
Answer: The value was 2.5.

Question: What about the “Relative Volatility” value [5, 15] of the same molecule?
Answer: Its value is 2.2.

Question: What does the source list for `CC(=O)OCCOC(C)=O` [Ethylene glycol diacetate]?
Answer: Relative Volatility [1]: 1.7; Relative Volatility [3]: 1.7; Relative Volatility [5, 15]: 1.3

Question: Which “Relative Volatility” value [1, 16] does the source give for `CCCCOCCO` [Ethylene glycol butyl ether] here?
Answer: Its value is 2.0.

Question: What about the “Relative Volatility” value [2, 19] of the same molecule?
Answer: Its value is 2.8.

Question: And the “Relative Volatility” value [4, 14]?
Answer: The value was 3.2.

Question: What about the “Relative Volatility” value [5, 15] of the same molecule?
Answer: Its value is 1.7.

Question: With `CCC(C)O` (stereo not shown) [2-Butanol] as the molecule, how does the “Relative Volatility” value [3] read?
Answer: Its value is 2.0.

Question: What about the “1,1,1-trichloroethane content of azeotrope” value (shortened to “1,1,1-trichloroethane content”) [13] of the same molecule?
Answer: The value was 90%.

Question: And the azeotrope boiling point [13]?
Answer: The azeotrope boiling point was 70.5 °C.

Question: Which “1,1,1-trichloroethane content” value [13] does the source give for `CC(C)O` [isopropanol] here?
Answer: Its value is 80%.

Question: Which “Relative Volatility” value [1] does the source give for `CC(C)CO` [Isobutanol] here?
Answer: The value was 2.2.

Question: What about the “Relative Volatility” value [3] of the same molecule?
Answer: Its value is 1.35.

Question: And the “Relative Volatility” value [5, 15]?
Answer: Its value is 1.2.

Question: Which results are given for `CCCCOCCOCCO` [Diethylene glycol butyl ether]?
Answer: Relative Volatility [1, 16]: 2.8; Relative Volatility [2]: 2.7; Relative Volatility [4, 14]: 2.1; Relative Volatility [5, 15]: 1.5

Question: Which “1,1,1-trichloroethane content” value [13] does the source give for `CCCO` [n-propanol] here?
Answer: Its value is 85%.

Question: Which “Relative Volatility” value [1] does the source give for `COC(=O)c1ccccc1O` [Methyl salicylate] here?
Answer: Its value is 1.3.

Question: What about the “Relative Volatility” value [2] of the same molecule?
Answer: Its value is 1.3.

Question: And the “Relative Volatility” value ([7]; * Brings Isopropanol out as Overhead, vapor-liquid equilibrium still)?
Answer: Its value is 1.45.

Question: And the “Relative Volatility” value [3]?
Answer: The value was 1.55.

Question: And the “Relative Volatility” value ([5]; * Brings out t-Butanol as Overhead)?
Answer: Its value is 1.3.

Question: With `CCO` [ethanol] as the molecule, how does the “1,1,1-trichloroethane content” value [13] read?
Answer: The value was 75%.

Question: What about the azeotrope boiling point [13] of the same molecule?
Answer: Its azeotrope boiling point is 63 °C.

Question: With `OCCOc1ccccc1` [Ethylene glycol phenyl ether] as the molecule, how does the “Relative Volatility” value [1] read?
Answer: Its value is 2.5.

Question: And the “Relative Volatility” value [2, 19]?
Answer: Its value is 2.0.

Question: What about the “Relative Volatility” value [4] of the same molecule?
Answer: Its value is 3.1.

Question: And the “Relative Volatility” value [5, 15]?
Answer: Its value is 1.3.

Question: Which “Relative Volatility” value [1] does the source give for `COCCO` [Ethylene glycol methyl ether] here?
Answer: Its value is 4.4.

Question: What about the “Relative Volatility” value [2] of the same molecule?
Answer: Its value is 4.5.

Question: And the “Relative Volatility” value [3]?
Answer: Its value is 1.95.

Question: And the “Relative Volatility” value [5, 15]?
Answer: The value was 3.1.

Question: Which “Relative Volatility” value [2] does the source give for `O=S1(=O)CCCC1` [Sulfolane] here?
Answer: The value was 2.7.

Question: What about the “Relative Volatility” value [7] of the same molecule?
Answer: The value was 1.4.

Question: What about the “Relative Volatility” value [3] of the same molecule?
Answer: The value was 2.2.

Question: And the “Relative Volatility” value [5, 15]?
Answer: The value was 1.4.

Question: With `COCC(C)O` (stereo not shown) [Propylene glycol methyl ether] as the molecule, how does the “Relative Volatility” value [1, 16] read?
Answer: The value was 4.2.

Question: What about the “Relative Volatility” value [2, 19] of the same molecule?
Answer: The value was 3.9.

Question: What about the “Relative Volatility” value ([7]; 1,1,1-trichloroethane from isopropanol, vapor-liquid equilibrium still) of the same molecule?
Answer: Its value is 2.3.

Question: And the “Relative Volatility” value [3]?
Answer: The value was 2.0.

Question: What about the “Relative Volatility” value [4, 14] of the same molecule?
Answer: The value was 3.1.

Question: And the “Relative Volatility” value [5, 15]?
Answer: Its value is 1.7.

Question: For `CC1COC(=O)O1` (stereo not shown) [Propylene carbonate], which “Relative Volatility” value [1, 16] is on record?
Answer: The value was 2.0.

Question: And the “Relative Volatility” value [2, 19]?
Answer: The value was 2.4.

Question: What about the “Relative Volatility” value [3] of the same molecule?
Answer: The value was 2.2.

Question: And the “Relative Volatility” value [5, 15]?
Answer: The value was 1.5.

Question: Which “1,1,1-trichloroethane content” value [13] does the source give for `CC(C)(C)O` [t-butanol] here?
Answer: The value was 80%.

Question: And the azeotrope boiling point [13]?
Answer: The azeotrope boiling point was 66 °C.

Question: With `CO` [methanol] as the molecule, how does the “1,1,1-trichloroethane content” value [13] read?
Answer: Its value is 20%.

Question: What about the azeotrope boiling point [13] of the same molecule?
Answer: Its azeotrope boiling point is 61 °C.
